The values below come from patent publication US5432270A, “DNA encoding tracheal antimicrobial peptides” (priority 1993, dated 1995).

Holding throughout (assay): Minimal inhibitory concentration in 0.25x TSB, microtiter plates
Holding throughout (type): cell-based

Assay [1] relates to Klebsiella pneumonia (ATCC 13883). The method, then:
(§1) Antimicrobial activity of TAP (SEQ ID NO: 1) and
(§2) Magainin 2-NH2 (SEQ ID NO: 6). Minimal inhibitory
(§3) concentrations were determined by incubating approximately
(§4) 3.125 μg/ml of the appropriate peptide.

Assay [2] has as its system Candida albicans (ATCC 14053). The procedure:
as §1, §2, §3, §4

For assay [3], the system named is Pseudomonas aeruginosa (ATCC 27853). The following applies: 2.5 × 10^4 microbe in 0.25× TSB, overnight 37° C. The method, then: as §1, §2, §3, §4
The subject of assay [4] is Staphylococcus aureus (ATCC 25923). As to conditions: 2.5 × 10^4 microbe in 0.25× TSB, overnight 37° C. The method, then:
as §1, §2, §3, §4

Assay [5] relates to Escherichia coli strain D31. The following applies: E. coli. The method, then:
as §1, §2, §3, §4
*strain D31 (Steiner, H. D., Hultmark, A., supra, (1981)

As to “TAP: 38-residue cysteine-rich antimicrobial peptide purified from bovine tracheal mucosa, SEQ ID NO:1 (NPVSCVRNKGICVPIRCPGSMKQIGTCVGRAVKCCRKK)”, the “Antimicrobial activity in vitro (in words)” value is given as “most active” in assay [1] (K. pneumonia), “significant antimicrobial activity” in assay [2] (C. albicans) and “most active” in assay [5]. Moreover, the Minimal inhibitory concentration in assay [1] (Klebsiella pneumonia ATCC 13883, 2.5 × 10^4 microbe in 0.25× TSB, overnight 37° C.) is 12.5 to 25 µg/mL; in assay [2] (Candida albicans ATCC 14053, 2.5 × 10^4 microbe in 0.25× TSB, overnight 37° C.), 6.25 to 12.5 µg/mL; in assay [3] it was 25 to 50 µg/mL; in assay [4], 25 to 50 µg/mL.
